Experimental findings from PubChem BioAssay AID210 (DTP/NCI, 2004) are described below.

In this assay the test system is CD2F1 mice, ip Colon 26 adenocarcinoma, median survival T/C. The experiment in a line: NCI In Vivo Anticancer Drug Screen. Data for tumor model Colon 26 Adenocarcinoma (intraperitoneal) in CD2F1 (CDF1) mice. The following applies: endpoint: median survival time, higher = longer survival. As for the experimental part: The antitumor activity of compounds was measured in mice bearing transplantable tumors. Survival or tumor size were measured and the results are expressed as the measurement made in the treated group (T) divided by the measurement made in the vehicle treated control group (C). The tumor model used in this assay is Colon 26 Adenocarcinoma (intraperitoneal) in CD2F1 (CDF1) mice

“And” between values parts separate entries of the source, which are not always exact repeats. Equal values may be shown once. Toxic doses and inconclusive results are not listed.

Consider `COc1cccc2c1C(=O)c1c(O)c3c(c(O)c1C2=O)C[C@@](O)(C(=O)CO)C[C@@H]3OC1CC(N)C(O)C(C)O1` (some centres not stated), for which the T/C (dose: 0.25 mg/kg/injection, schedule: Q01DX009 (ip), vehicle: saline) is 151 % of control; the T/C (dose: 0.38 mg/kg/injection, schedule: Q04DX003 (ip), vehicle: water) was 113 % of control; the T/C (dose: 0.5 mg/kg/injection, schedule: Q01DX009 (ip), vehicle: saline) was 154 % of control; the T/C (dose: 0.75 mg/kg/injection, schedule: Q04DX003 (ip), vehicle: water) was 117 % of control; the T/C (dose: 1.0 mg/kg/injection, schedule: Q01DX009 (ip), vehicle: saline) is 243 % of control; the T/C (dose: 1.5 mg/kg/injection, schedule: Q04DX003 (ip), vehicle: water) was 106 % of control. Further, the T/C (dose: 1.5 mg/kg/injection, schedule: Q07DX003 (iv), vehicle: saline) was 111 % of control; the T/C (dose: 1.73 mg/kg/injection, schedule: Q04DX003 (ip), vehicle: water) was 157 % of control; the T/C (dose: 2.0 mg/kg/injection, schedule: Q01DX009 (ip), vehicle: saline) is 310 % of control; the T/C (dose: 2.0 mg/kg/injection, schedule: Q04DX003 (ip), vehicle: saline) was 278 % of control; the T/C (dose: 3.0 mg/kg/injection, schedule: Q04DX003 (ip), vehicle: water) was 91 % of control; the T/C (dose: 3.0 mg/kg/injection, schedule: Q07DX003 (iv), vehicle: saline) was 97 % of control. The T/C was 105 % of control (dose: 3.3 mg/kg/injection, schedule: Q07DX002 (iv), vehicle: saline); 112 % of control (dose: 3.7 mg/kg/injection, schedule: Q07DX003 (iv), vehicle: saline); 334 % of control (dose: 4.0 mg/kg/injection, schedule: Q04DX003 (ip), vehicle: saline); 106 % of control (dose: 4.3 mg/kg/injection, schedule: Q07DX002 (iv), vehicle: saline); 108 % of control (dose: 4.5 mg/kg/injection, schedule: Q07DX002 (iv), vehicle: saline); 101 % of control (dose: 4.5 mg/kg/injection, schedule: Q07DX002 (sc), vehicle: saline). For the same molecule, the T/C (dose: 4.8 mg/kg/injection, schedule: Q04DX003 (ip), vehicle: water) was 152 % of control; the T/C (dose: 4.8 mg/kg/injection, schedule: Q07DX003 (iv), vehicle: saline) is 107 % of control and 108 % of control; the T/C (dose: 5.4 mg/kg/injection, schedule: Q07DX002 (iv), vehicle: saline) is 111 % of control; the T/C (dose: 5.8 mg/kg/injection, schedule: Q07DX003 (iv), vehicle: saline) is 115 % of control; the T/C (dose: 6.0 mg/kg/injection, schedule: Q04DX003 (ip), vehicle: water) was 120 % of control; the T/C (dose: 6.3 mg/kg/injection, schedule: Q07DX002 (ip), vehicle: saline) was 197 % of control. For the same molecule, the T/C reads like this: (dose: 6.3 mg/kg/injection, schedule: Q07DX002 (iv), vehicle: saline) 105 % of control and 106 % of control; (dose: 6.3 mg/kg/injection, schedule: Q07DX003 (iv), vehicle: saline) 113 % of control and 114 % of control and 115 % of control; (dose: 6.5 mg/kg/injection, schedule: Q07DX002 (iv), vehicle: saline) 122 % of control; (dose: 7.3 mg/kg/injection, schedule: Q07DX002 (iv), vehicle: saline) 117 % of control; (dose: 7.3 mg/kg/injection, schedule: Q07DX002 (sc), vehicle: saline) 114 % of control; (dose: 8.1 mg/kg/injection, schedule: Q07DX002 (iv), vehicle: saline) 104 % of control and 112 % of control. Moreover, the T/C is, setting by setting: (dose: 8.1 mg/kg/injection, schedule: Q07DX003 (iv), vehicle: saline) 111 % of control and 119 % of control (2×); (dose: 8.7 mg/kg/injection, schedule: Q07DX002 (iv), vehicle: saline) 121 % of control; (dose: 9.0 mg/kg/injection, schedule: Q07DX003 (iv), vehicle: saline) 111 % of control; (dose: 9.3 mg/kg/injection, schedule: Q07DX002 (iv), vehicle: saline) 109 % of control; (dose: 9.8 mg/kg/injection, schedule: Q07DX002 (iv), vehicle: saline) 124 % of control; (dose: 10.5 mg/kg/injection, schedule: Q07DX002 (ip), vehicle: saline) 205 % of control. In addition, the T/C reads like this: (dose: 10.5 mg/kg/injection, schedule: Q07DX002 (iv), vehicle: saline) 111 % of control and 88 % of control; (dose: 10.5 mg/kg/injection, schedule: Q07DX003 (iv), vehicle: saline) 120 % of control and 94 % of control; (dose: 12.0 mg/kg/injection, schedule: Q04DX003 (ip), vehicle: water) 116 % of control; (dose: 12.0 mg/kg/injection, schedule: Q07DX002 (iv), vehicle: saline) 123 % of control; (dose: 12.0 mg/kg/injection, schedule: Q07DX002 (sc), vehicle: saline) 122 % of control; (dose: 12.0 mg/kg/injection, schedule: Q07DX003 (iv), vehicle: saline) 96 % of control. Also, the T/C (dose: 14.0 mg/kg/injection, schedule: Q07DX002 (iv), vehicle: saline) is 115 % of control; the T/C (dose: 14.0 mg/kg/injection, schedule: Q07DX003 (iv), vehicle: saline) was 117 % of control; the T/C (dose: 19.0 mg/kg/injection, schedule: Q07DX002 (sc), vehicle: saline) is 155 % of control.

On to `Cc1cn(C2CC(O)C(CO)O2)c(=O)[nH]c1=O` (configuration not stated), for which the T/C reads like this: (dose: 12.5 mg/kg/injection, schedule: Q04DX003 (ip), vehicle: saline) 98 % of control; (dose: 25.0 mg/kg/injection, schedule: Q04DX003 (ip), vehicle: saline) 98 % of control; (dose: 50.0 mg/kg/injection, schedule: Q04DX003 (ip), vehicle: saline) 98 % of control; (dose: 64.0 mg/kg/injection, schedule: Q04DX002 (ip), vehicle: suspension in saline) 101 % of control; (dose: 100.0 mg/kg/injection, schedule: Q04DX003 (ip), vehicle: saline) 96 % of control and 100 % of control; (dose: 128.0 mg/kg/injection, schedule: Q04DX002 (ip), vehicle: saline) 88 % of control. The T/C reads like this: (dose: 128.0 mg/kg/injection, schedule: Q04DX002 (ip), vehicle: suspension in saline) 100 % of control; (dose: 200.0 mg/kg/injection, schedule: Q04DX003 (ip), vehicle: saline) 99 % of control and 100 % of control; (dose: 256.0 mg/kg/injection, schedule: Q04DX002 (ip), vehicle: suspension in saline) 94 % of control; (dose: 400.0 mg/kg/injection, schedule: Q04DX003 (ip), vehicle: saline) 116 % of control and 98 % of control; (dose: 512.0 mg/kg/injection, schedule: Q04DX002 (ip), vehicle: suspension in saline) 94 % of control; (dose: 1024.0 mg/kg/injection, schedule: Q04DX002 (ip), vehicle: saline) 92 % of control. Moreover, where the note is “dose: 1024.0 mg/kg/injection, schedule: Q04DX002 (ip), vehicle: suspension in saline”, the T/C is 95 % of control.

As to `ClC(Cl)=C(Cl)Cl`, the T/C (dose: 75.0 mg/kg/injection, schedule: Q04DX002 (ip), vehicle: other) is 101 % of control; the T/C (dose: 150.0 mg/kg/injection, schedule: Q04DX002 (ip), vehicle: other) is 93 % of control; the T/C (dose: 300.0 mg/kg/injection, schedule: Q04DX002 (ip), vehicle: other) is 89 % of control.

Take `S=P(N1CC1)(N1CC1)N1CC1`: the T/C is, setting by setting: (dose: 1.5 mg/kg/injection, schedule: Q04DX003 (ip), vehicle: saline) 106 % of control; (dose: 3.0 mg/kg/injection, schedule: Q04DX003 (ip), vehicle: saline) 115 % of control; (dose: 12.0 mg/kg/injection, schedule: Q04DX003 (ip), vehicle: saline) 153 % of control.

For `Nc1ncnc2c1ccn2C1OC(CO)C(O)C1O` (configuration not stated), the T/C is 98 % of control (dose: 0.5 mg/kg/injection, schedule: Q04DX003 (ip), vehicle: Klucel (hydroxypropylcellulose) (HPC)); 119 % of control (dose: 1.0 mg/kg/injection, schedule: Q04DX003 (ip), vehicle: Klucel (hydroxypropylcellulose) (HPC)); 118 % of control (dose: 2.0 mg/kg/injection, schedule: Q04DX003 (ip), vehicle: Klucel (hydroxypropylcellulose) (HPC)); 115 % of control (dose: 4.0 mg/kg/injection, schedule: Q04DX003 (ip), vehicle: Klucel (hydroxypropylcellulose) (HPC)).

For the molecule `CC[C@]1(O)C[C@H]2CN(CCc3c([nH]c4ccccc34)[C@@](C(=O)OC)(c3cc4c(cc3OC)N(C=O)[C@H]3[C@@](O)(C(=O)OC)[C@H](OC(C)=O)[C@]5(CC)C=CCN6CC[C@]43[C@@H]65)C2)C1`, the T/C is, setting by setting: (dose: 0.95 mg/kg/injection, schedule: Q07DX003 (ip), vehicle: saline) 112 % of control and 115 % of control; (dose: 1.4 mg/kg/injection, schedule: Q07DX003 (ip), vehicle: saline) 120 % of control and 123 % of control; (dose: 2.1 mg/kg/injection, schedule: Q07DX003 (ip), vehicle: saline) 105 % of control; (dose: 3.0 mg/kg/injection, schedule: Q07DX003 (ip), vehicle: saline) 99 % of control.
